Laboratory results published in paper PMC2481421, “Gene expression response in target organ and whole blood varies as a function of target organ injury phenotype” (Genome Biology, 2008).
Values joined by “and” are separate entries in the source; they are usually repeats but may differ in a detail not shown here. Equal values may be shown once. “Also recorded” adds a separate entry of the source.

Legend:
[1] = In-life observations: body weight, gross findings before and at necropsy; assay type: in vivo, Male Fischer 344/N rats; conditions: individual animals; for Initial Body Wt.: 48 hours group, baseline weight
Description: Doses were determined with pilot experiments. […] Serum was collected for clinical chemistry.

liver = assay: Liver histopathology (H&E sections of left liver lobe, severity graded) after a single dose; conditions: for biliary hyperplasia: 48 hours; for extent of hepatocellular necrosis, amount of inflammatory cell infiltrates and/or indications of hepatocellular repair (mitosis) across animals: high dose, 48 hour; for Primary site of livery injury: rat, single administration
Description: The animals were acclimated for 14 days and observed for absence of disease.
Doses were determined with pilot experiments. For each chemical, doses that elicited a sub-toxic ('low'), a moderately toxic ('medium') or a overtly toxic ('high') response 24 hours after treatment were selected. […] For each compound, control animal groups were treated with vehicle alone. All animals were fasted for 12-18 hours prior to exposure. Groups of four to six animals were dosed between 8:30 and 9:30 a.m.; thereafter, feed was provided ad libitum. After 6, 24 or 48 hours of treatment, animals were anesthetized by isoflurane anesthesia. Whole blood was collected via retro-orbital plexus for hematology and gene expression analysis. Serum was collected for clinical chemistry. The animals were euthanized while under anesthesia by cervical dislocation and necropsied within 4 minutes of sacrifice. The left liver lobe was promptly removed and two defined cross sections were placed in 10% neutral buffered formalin for subsequent histopathology.
The cross sections that were fixed by immersion in 10% neutral buffered formalin (see 'In-life studies' section above) were transferred to histology grade alcohol for 18-24 hours after necropsy. Tissues were then processed, embedded in paraffin, sectioned at 5 microns, and stained with hematoxylin and eosin. A pathologist completed the initial microscopic evaluation of each liver sample for a given compound. […] An independent pathology quality assessment review was performed by a second pathologist on the initial histopathological findings.

[2] = 15 mg/kg, gavage in corn oil, 48 hours after single dose
[3] = 50 mg/kg, gavage in corn oil, 48 hours after single dose
[4] = 150 mg/kg, gavage in corn oil, 48 hours after single dose
[5] = Gavage, corn oil, 15 mg/kg, 6 hours
[6] = Gavage, corn oil, 15 mg/kg, 24 hours
[7] = Gavage, corn oil, 50 mg/kg, 6 hours
[8] = Gavage, corn oil, 50 mg/kg, 24 hours
[9] = Gavage, corn oil, 150 mg/kg, 6 hours
[10] = Gavage, corn oil, 150 mg/kg, 24 hours
[11] = I.P., PBS vehicle, 25 mg/kg, 48 hours
[12] = I.P., PBS vehicle, 100 mg/kg, 48 hours
[13] = I.P., PBS vehicle, 400 mg/kg, 48 hours
[14] = Gavage, corn oil, 10 mg/kg, 6 hours
[15] = Gavage, corn oil, 10 mg/kg, 24 hours
[16] = Gavage, corn oil, 10 mg/kg, 48 hours
[17] = Gavage, corn oil, 50 mg/kg, 48 hours
[18] = Gavage, corn oil, 300 mg/kg, 6 hours
[19] = Gavage, corn oil, 300 mg/kg, 24 hours
[20] = Gavage, corn oil, 300 mg/kg, 48 hours

## CC(=N)S [Thioacetamide]
[1]; 15 mg/kg, gavage in corn oil, 48 hours after single dose, at necropsy
  Gross Findings: No Gross Findings
[1]; [2]
  Clin/Ob Prior to Necropsy: Ungroomed appearance
  Final Body Wt.: 264.10 g and 257.60 g and 259.00 g and 263.10 g
[1]; 50 mg/kg, gavage in corn oil, 48 hours after single dose, at necropsy
  Gross Findings: Liver left and median lobes rough surface mild; also recorded: Liver left lobe rough surface mild, median lobe pale rough surface mild; also recorded: Liver left and median lobes pale, mildly firm, rough surface
[1]; [3]
  Clin/Ob Prior to Necropsy: Piloerection; also recorded: Ungroomed appearance
  Final Body Wt.: 233.00 g and 228.70 g and 248.40 g and 236.30 g
[1]; 150 mg/kg, gavage in corn oil, 48 hours after single dose, at necropsy
  Gross Findings: Liver left and median lobes pale, firm, rough surface mild; Kidney red medulla; also recorded: Liver left and median lobes pale, minimally firm, rough surface mild
[1]; [4]
  Clin/Ob Prior to Necropsy: Ungroomed appearance; piloerection; hunched posture; red fur discoloration (cranial dorsum); also recorded: Ungroomed appearance; piloerection; hunched posture; red nasal discharge
  Final Body Wt.: 230.90 g and 232.40 g and 228.10 g and 228.50 g
[1]; [5]
  Clin/Ob Prior to Necropsy: Normal
  Gross Findings: No Gross Findings
[1]; [6]
  Clin/Ob Prior to Necropsy: Normal
  Final Body Wt.: 261.90 g and 245.50 g and 259.10 g and 269.60 g
  Gross Findings: No Gross Findings; also recorded: Liver median lobe rough surface minimal
[1]; [7]
  Clin/Ob Prior to Necropsy: Normal
  Gross Findings: Liver left lobe mottled; also recorded: No Gross Findings
[1]; [8]
  Clin/Ob Prior to Necropsy: Ungroomed appearance; also recorded: Normal
  Final Body Wt.: 231.40 g and 233.80 g and 239.30 g and 227.90 g
  Gross Findings: No Gross Findings; also recorded: Liver left lobe rough surface mild, median lobe rough surface minimal; also recorded: Liver left lobe rough surface minimal, median lobe rough surface mild
[1]; [9]
  Clin/Ob Prior to Necropsy: Normal
  Gross Findings: Liver left lobe mottled; also recorded: No Gross Findings
[1]; [10]
  Clin/Ob Prior to Necropsy: Normal; also recorded: Red nasal discharge
  Final Body Wt.: 222.50 g and 236.40 g and 240.60 g
  Gross Findings: Liver left and median lobes rough surface mild; also recorded: Liver left lobe mottled rough surface minimal, median lobe rough surface mild
[1]; thioacetamide 15 mg/kg, gavage in corn oil
  Initial Body Wt.: 244.40 g and 241.70 g and 243.00 g and 244.10 g
[1]; thioacetamide 50 mg/kg, gavage in corn oil
  Initial Body Wt.: 243.30 g and 241.60 g and 248.50 g and 241.50 g
[1]; thioacetamide 150 mg/kg, gavage in corn oil
  Initial Body Wt.: 240.40 g and 246.90 g and 242.10 g and 241.40 g
liver
  biliary hyperplasia: evoked biliary hyperplasia
  extent of hepatocellular necrosis, amount of inflammatory cell infiltrates and/or indications of hepatocellular repair (mitosis) across animals: variability
  Primary site of livery injury: Centrilobular

## N[C@H]1C(O)O[C@H](CO)[C@H](O)[C@@H]1O (stereo partly shown) [Galactosamine]
[1]; 25 mg/kg, I.P., PBS, 6 hours
  Clin/Ob Prior to Necropsy: Normal
  Gross Findings: No Gross Findings; also recorded: Liver left lobe mottled, median lobe mottled with dark edges
[1]; 25 mg/kg, I.P., PBS, 24 hours
  Clin/Ob Prior to Necropsy: Normal
  Final Body Wt.: 288.30 g and 287.60 g and 307.80 g and 298.50 g
  Gross Findings: No Gross Findings
[1]; 25 mg/kg, I.P., PBS, 48 hours
  Clin/Ob Prior to Necropsy: Normal
  Final Body Wt.: 291.10 g and 291.80 g and 294.20 g
  Gross Findings: No Gross Findings
[1]; 100 mg/kg, I.P., PBS, 6 hours
  Clin/Ob Prior to Necropsy: Normal
  Gross Findings: Liver left lobe mottled, median lobe mottled with dark edges; also recorded: No Gross Findings
[1]; 100 mg/kg, I.P., PBS, 24 hours
  Clin/Ob Prior to Necropsy: Normal
  Final Body Wt.: 270.10 g and 280.10 g and 305.10 g and 290.70 g
  Gross Findings: No Gross Findings; also recorded: Liver median lobe mottled
[1]; 400 mg/kg, I.P., PBS, 6 hours
  Clin/Ob Prior to Necropsy: Normal
  Gross Findings: No Gross Findings; also recorded: Liver left lobe mottled, median lobe mottled with dark edges
[1]; 400 mg/kg, I.P., PBS, 24 hours
  Clin/Ob Prior to Necropsy: Normal
  Final Body Wt.: 270.50 g and 268.20 g and 301.80 g and 280.20 g
  Gross Findings: Liver left lobe with dark edges, median lobe mottled; also recorded: Liver left lobe mottled with dark edges, median lobe mottled; also recorded: No Gross Findings; also recorded: Liver left and median lobes dark and mottled
[1]; [11]
  Clin/Ob Prior to Necropsy: Normal
  Final Body Wt.: 287.20 g
  Gross Findings: No Gross Findings
[1]; [12]
  Clin/Ob Prior to Necropsy: Normal
  Final Body Wt.: 284.20 g and 284.00 g and 295.90 g and 294.00 g
  Gross Findings: No Gross Findings
[1]; [13]
  Clin/Ob Prior to Necropsy: Piloerection, Decreased muscle tone; also recorded: Normal
  Final Body Wt.: 263.20 g and 263.40 g and 260.90 g and 265.30 g
  Gross Findings: Liver left and median lobes pale with mildly rough surface and dark edges; also recorded: Liver left lobe firm and pale with minimally rough surface and dark edges, median lobe firm, pale, and mottled with minimally rough surface; also recorded: Liver left lobe pale, mottled, and firm; median lobe pale with dark areas and firm
liver
  biliary hyperplasia: evoked biliary hyperplasia
  extent of hepatocellular necrosis, amount of inflammatory cell infiltrates and/or indications of hepatocellular repair (mitosis) across animals: variability
  Primary site of livery injury: Random

## O=NN1CCOCC1 [N-nitrosomorpholine]
[1]; [14]
  Clin/Ob Prior to Necropsy: Normal
  Gross Findings: No Gross Findings
[1]; [15]
  Clin/Ob Prior to Necropsy: Normal
  Final Body Wt.: 226.20 g and 225.80 g and 258.80 g and 254.30 g
  Gross Findings: No Gross Findings
[1]; [16]
  Clin/Ob Prior to Necropsy: Normal
  Final Body Wt.: 238.00 g and 238.70 g and 249.90 g
  Gross Findings: No Gross Findings
[1]; [7]
  Clin/Ob Prior to Necropsy: Normal
  Gross Findings: No Gross Findings
[1]; [8]
  Clin/Ob Prior to Necropsy: Normal; also recorded: Corneal Opacity, right eye (pre-dose)
  Final Body Wt.: 225.10 g and 189.30 g and 237.50 g and 242.10 g
  Gross Findings: Liver posterior aspect of left lobe with dark focus (1x1 mm); also recorded: Liver left and median lobes with minimal roughening of surfaces; also recorded: Liver left and median lobes pale; also recorded: Liver left lobe pale and firm, median lobe firm with minimal roughening of surface
[1]; [17]
  Clin/Ob Prior to Necropsy: Normal
  Final Body Wt.: 229.00 g and 222.00 g and 233.70 g and 237.20 g
  Gross Findings: Liver left and median lobes with mild roughening of surfaces; also recorded: Liver left and median lobes firm with minimal roughening of surfaces; also recorded: No Gross Findings
[1]; [18]
  Clin/Ob Prior to Necropsy: Normal; also recorded: Corneal Opacity, right eye (pre-dose)
  Gross Findings: No Gross Findings
[1]; [19]
  Clin/Ob Prior to Necropsy: Normal
  Final Body Wt.: 213.90 g and 207.30 g and 219.00 g and 228.80 g
  Gross Findings: Liver left lobe mottled with minimal roughening of surface, median lobe with minimal roughening of surface; also recorded: Liver left lobe with minimal roughening of surface, median lobe mottled with minimal roughening of surface; also recorded: Liver left and median lobes with firm with mild roughening of surfaces
[1]; [20]
  Clin/Ob Prior to Necropsy: Ungroomed Appearance
  Final Body Wt.: 205.40 g and 202.50 g and 201.50 g and 203.90 g
  Gross Findings: Liver left and median lobes dark with mild roughening of surfaces; median lobe with prominent centrilobular pattern; also recorded: Liver left and median lobes dark with mild roughening of surfaces; median lobe with fibrin on surface; also recorded: Liver left and median lobes firm and dark with mild roughening of surfaces
liver
  Primary site of livery injury: Centrilobular
